In patent US10894807B2 (Siemens Medical Solutions USA, Inc., priority 2011, dated 2021):

Biological target: human PSMA (Homo sapiens (Human), UniProt Q04609)
Test: Enzymatic assay for in vitro evaluation of PSMA inhibitors (fluorescent assay of PSMA activity, NAAG substrate, OPA detection of glutamate)
Format: biochemical
Settings: for PSMA Blkg % (10 μM): compound at 10 μM
Description: Enzymatic Assay for In Vitro Evaluation of PSMA Inhibitors
The inhibitory activity of all compounds was determined using a fluorescent assay of human PSMA activity. The enzyme used in the assay was purchased from R&D Systems and stored at −80° C. The PSMA activity was assayed in a two-step process. In the first step, aliquots of enzyme (0.2 μg/mL) were incubated for 1 h at 37° C. in 50 mM HEPES, 0.1 M NaCl, pH 7.5, in the presence of 20 μM NAAG and the given inhibitor, in a volume of 250 μL, to allow for the accumulation of glutamate produced in the PSMA reaction. In the second step, the amount of accumulated glutamate was measured using the OPA reaction, and the fluorescence was read with a SpectraMax fluorescent plate reader using excitation at 330 nm and emission at 450 nm. The final Ki values for each inhibitor were calculated from the respective IC50 values using the Cheng and Prusoff equation.

Sequence of human PSMA (Q04609 whole entry): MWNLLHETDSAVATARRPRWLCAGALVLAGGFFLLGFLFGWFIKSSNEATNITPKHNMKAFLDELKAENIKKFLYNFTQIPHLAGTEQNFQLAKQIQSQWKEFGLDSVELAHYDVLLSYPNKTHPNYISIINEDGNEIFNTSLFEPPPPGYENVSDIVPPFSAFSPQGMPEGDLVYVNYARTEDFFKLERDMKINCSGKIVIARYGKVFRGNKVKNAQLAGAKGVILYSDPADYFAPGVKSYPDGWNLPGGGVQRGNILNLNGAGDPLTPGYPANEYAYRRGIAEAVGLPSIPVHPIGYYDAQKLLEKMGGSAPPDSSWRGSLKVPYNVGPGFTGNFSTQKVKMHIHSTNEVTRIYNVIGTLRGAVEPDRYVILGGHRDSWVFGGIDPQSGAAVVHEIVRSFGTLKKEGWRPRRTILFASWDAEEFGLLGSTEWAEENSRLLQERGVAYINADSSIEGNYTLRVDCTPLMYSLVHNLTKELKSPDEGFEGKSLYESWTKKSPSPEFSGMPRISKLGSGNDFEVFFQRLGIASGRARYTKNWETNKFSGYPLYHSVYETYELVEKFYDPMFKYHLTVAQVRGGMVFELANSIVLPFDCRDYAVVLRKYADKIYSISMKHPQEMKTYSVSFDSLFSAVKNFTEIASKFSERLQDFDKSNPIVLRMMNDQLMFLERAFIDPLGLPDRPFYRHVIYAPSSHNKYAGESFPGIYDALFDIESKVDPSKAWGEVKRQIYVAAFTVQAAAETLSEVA

Compound	PSMA Blkg % (10 μM)	Ki	PSMA Blkg % (1.0 μM)
O=C(O)CC[C@H](NC(=O)N[C@@H](CCCCNc1cc(OCC(COc2ccc([N+](=O)[O-])c(NCCCC[C@H](NC(=O)N[C@@H](CCC(=O)O)C(=O)O)C(=O)O)c2)n2cc(CCCF)nn2)ccc1[N+](=O)[O-])C(=O)O)C(=O)O (stereo in doubt) [P266, (2S)-2-(3-((1)-1-Carboxy-5-((5-(3-(3-(((S)-5-carboxy-5-(3-((S)-1,3-dicarboxypropyl)ureido)pentyl)amino)-4-nitrophenoxy)-2-(4-(3-fluoropropyl)-1H-1,2,3-triazol-1-yl)propoxy)-2-nitrophenyl)amino)pentyl)ureido)pentanedioic Acid]	–	0.3 nM	–
O=C(O)CCC(NC(=O)N[C@@H](CCCCNc1nc(NCCN(CCNc2ccc([N+](=O)[O-])c(NCCCCC(NC(=O)N[C@@H](CCC(=O)O)C(=O)O)C(=O)O)n2)CCNc2ccc([N+](=O)[O-])c(NCCCCC(NC(=O)N[C@@H](CCC(=O)O)C(=O)O)C(=O)O)n2)ccc1[N+](=O)[O-])C(=O)O)C(=O)O (stereo in doubt) [P270, (2S,2′S,2″S)-2,2′,2″-(((((1S,1′S,1″S)-((6,6′,6″-((Nitrilotris(ethane-2,1-diyl))tris(azanediyl))tris(3-nitropyridine-6,2-diyl))tris(azanediyl))tris(1-carboxypentane-5,1-diyl))tris(azanediyl))tris(carbonyl))tris(azanediyl))tripentanedioic Acid]	–	0.2 nM	71%
O=C(O)CCC(NC(=O)N[C@@H](CCCCNc1cc(OCC(COc2ccc([N+](=O)[O-])c(NCCCCC(NC(=O)N[C@@H](CCC(=O)O)C(=O)O)C(=O)O)c2)OCc2cn(CCF)nn2)ccc1[N+](=O)[O-])C(=O)O)C(=O)O (stereo in doubt) [P277, (2S)-2-(3-((1S)-1-Carboxy-5-((5-(3-(3-(((S)-5-carboxy-5-(3-((S)-1,3-dicarboxypropyl)ureido)pentyl)amino)-4-nitrophenoxy)-2-((1-(2-fluoroethyl)-1H-1,2,3-triazol-4-yl)methoxy)propoxy)-2-nitrophenyl)amino)pentyl)ureido)pentanedioic Acid]	–	0.4 nM	–
O=C(O)CCC(NC(=O)NC(CCCCNC(=O)CC(CC(=O)NCCCCC(NC(=O)N[C@@H](CCC(=O)O)C(=O)O)C(=O)O)NC(=O)c1ccc(-n2cc(CCCF)nn2)cc1)C(=O)O)C(=O)O (stereo in doubt) [P278, (3S,7S,23S,27S)-15-(4-(4-(3-Fluoropropyl)-1H-1,2,3-triazol-1-yl)benzamido)-5,13,17,25-tetraoxo-4,6,12,18,24,26-hexaazanonacosane-1,3,7,23,27,29-hexacarboxylic Acid]	–	0.2 nM	–
O=C(O)CC[C@H](NC(=O)N[C@@H](CSCc1ccc(F)cc1)C(=O)O)C(=O)O [P001]	97%	50 nM	–
O=C(O)CC[C@H](NC(=O)N[C@@H](CCCCNC(=O)c1ccc(F)nc1)C(=O)O)C(=O)O [P002, (S)-2-(3-((S)-1-Carboxy-5-(6-fluoronicotinamido)pentyl)ureido)pentanedioic Acid]	92%	–	–
O=C(O)CC[C@H](NC(=O)N[C@@H](CCCCNC(=O)c1ccc(Cl)nc1)C(=O)O)C(=O)O [P003, (S)-2-(3-((S)-1-Carboxy-5-(6-chloronicotinamido)pentyl)ureido)pentanedioic Acid]	99%	–	–
O=C(O)CC[C@H](NC(=O)N[C@@H](CCCCNC(=O)c1ccnc(F)c1)C(=O)O)C(=O)O [P004, (S)-2-(3-((S)-1-Carboxy-5-(2-fluoroisonicotinamido)pentyl)ureido)pentanedioic Acid]	90%	15.6 nM	–
O=C(O)CC[C@H](NC(=O)N[C@@H](CCCCNC(=O)Cn1cc(CCCF)nn1)C(=O)O)C(=O)O [P005, (S)-2-(3-((S)-1-Carboxy-5-(2-(4-(3-fluoropropyl)-1H-1,2,3-triazol-1-yl)acetamido)pentyl)ureido)pentanedioic Acid]	89%	40.7 nM	–
O=C(Nc1cc(C(=O)O)cc(C(=O)O)c1)N[C@@H](Cc1ccc(OCCF)cc1)C(=O)O [P006, (S)-5-(3-(1-Carboxy-2-(4-(2-fluoroethoxy)phenyl)ethyl)ureido)isophthalic Acid]	0%	–	–
O=C(Cn1cc(CCCF)nn1)NCCCC[C@H](NC(=O)Nc1cc(C(=O)O)cc(C(=O)O)c1)C(=O)O [P007, (S)-5-(3-(1-Carboxy-5-(2-(4-(3-fluoropropyl)-1H-1,2,3-triazol-1-yl)acetamido)pentyl)-ureido)isophthalic Acid]	0%	–	–
O=C(O)CC[C@H](NC(=O)N(CC(=O)O)[C@@H](CCCCNC(=O)OCc1ccccc1)C(=O)O)C(=O)O [P008, (9S,13S)-10-(Carboxymethyl)-3,1-dioxo-1-phenyl-2-oxa-4,10,12-triazapentadecane-9,13,15-tricarboxylic Acid]	21%	–	–
O=C(O)CCC(CP(=O)(O)O)C(=O)O (centres unmarked) [P009]	100%	–	–
O=C(O)CC[C@H](NC(=O)N(CCc1ccccc1)CC(=O)O)C(=O)O [P010, (S)-2-(3-(Carboxymethyl)-3-phenethylureido)pentanedioic Acid]	0%	–	–

Second part, led by results:

PSMA Blkg % (10 μM)	Ki	Compound	PSMA Blkg % (1.0 μM)
10%	–	2-(4-(2-(((Benzyloxy)carbonyl)amino)-3-methoxy-3-oxopropyl)-1H-1,2,3-triazol-1-yl)pentanedioic Acid [P124]	–
–	9.4 nM	O=C(O)CC[C@H](NC(=O)N[C@@H](CCCCNC(=O)N1CCN(C(=O)c2ccc(-n3cc(CCCF)nn3)cc2)CC1)C(=O)O)C(=O)O (stereo in doubt) [P249, (S)-2-(3-((S)-1-Carboxy-5-(4-(4-(4-(3-fluoropropyl)-1H-1,2,3-triazol-1-yl)benzoyl)-piperizine-1-carboxamido)pentyl)ureido)pentanedioic Acid]	–
–	13.1 nM	O=C(O)CC[C@H](NC(=O)NC(Cc1ccc(NC(=O)N2CCN(C(=O)c3cc(NC(=O)Cn4cc(CCCF)nn4)cc(C(=O)N4CCN(C(=O)Nc5ccc(CC(NC(=O)N[C@@H](CCC(=O)O)C(=O)O)C(=O)O)cc5)CC4)c3)CC2)cc1)C(=O)O)C(=O)O (stereo in doubt) [P274, (2S,2′S)-2,2′-(((((1S,1′S)-(((4,4′-(5-(2-(4-(3-Fluoropropyl)-1H-1,2,3-triazol-1-yl)acetamido)isophthaloyl)bis(piperazine-1,1′-carbonyl))bis(azanediyl))bis(4,1-phenylene))bis(1-carboxyethane-2,1-diyl))bis(azanediyl))bis(carbonyl))bis(azanediyl))dipentanedioic Acid]	–
–	6.6 nM	O=C(O)CC[C@H](NC(=O)NC(Cc1ccc(NC(=O)N2CCN(C(=O)c3cc(C(=O)N4CCN(C(=O)Nc5ccc(CC(NC(=O)N[C@@H](CCC(=O)O)C(=O)O)C(=O)O)cc5)CC4)cc(-n4cc(CCCF)nn4)c3)CC2)cc1)C(=O)O)C(=O)O (stereo in doubt) [P275, (2S,2′S)-2,2′-(((((1S,1′S)-(((4,4′-(5-(4-(3-Fluoropropyl)-1H-1,2,3-triazol-1-yl)isophthaloyl)bis(piperazine-1,1′-carbonyl))bis(azanediyl))bis(4,1-phenylene))bis(1-carboxyethane-2,1-diyl))bis(azanediyl))bis(carbonyl))bis(azanediyl))dipentanedioic Acid]	–
–	1.3 nM	O=C(O)CC[C@H](NC(=O)N[C@@H](CCCCNC(=O)N1CCN(C(=O)CCC(CCC(=O)N2CCN(C(=O)NCCCC[C@H](NC(=O)N[C@@H](CCC(=O)O)C(=O)O)C(=O)O)CC2)NC(=O)c2ccc(-n3cc(CCCF)nn3)cc2)CC1)C(=O)O)C(=O)O (stereo in doubt) [P281, (2S,2′S)-2,2′-(((((1S,1′S)-((4,4′-(4-(4-(4-(3-Fluoropropyl)-1H-1,2,3-triazol-1-yl)benzamido)heptanedioyl)bis(piperazine-1,1′-carbonyl))bis(azanediyl))bis(1-carboxypentane-5,1diyl))-bis(azanediyl))-bis(carbonyl))-bis(azanediyl))-dipentanedioic Acid]	–
–	0.7 nM	O=C(O)CCC(NC(=O)NC(CC1CCN(C(=O)CCC(CCC(=O)N2CCC(C[C@H](NC(=O)NC(CCC(=O)O)C(=O)O)C(=O)O)CC2)NC(=O)c2ccc(-n3cc(CCCF)nn3)cc2)CC1)C(=O)O)C(=O)O (stereo in doubt) [P292, (2S)-2-(3-((1S)-1-Carboxy-2-(1-(7-(4-((S)-2-carboxy-2-(3-((S)-1,3-dicarboxypropyl)-ureido)-ethyl)-piperidin-1-yl)-4-(4-(4-(3-fluoropropyl)-1H-1,2,3-triazol-1-yl)-benzamido)7-oxoheptanoyl)-piperidin-4-yl)ethyl)ureido)pentanedioic Acid]	96%
0%	–	O=C(O)CC[C@H](NC(=O)N(CC(=O)O)NC(=O)Cc1ccccc1)C(=O)O [P011, (S)-2-(1-(Carboxymethyl)-2-(2-phenylacetyl)hydrazinecarboxamido)pentanedioic Acid]	–
0%	–	O=C(O)CC[C@H](NC(=O)N(CC(=O)O)[C@@H](CCCCNC(=O)OCc1ccccc1)C(=O)NO)C(=O)O [P012, (S)-2-(3-((S)-6-(((Benzyloxy)carbonyl)amino)-1-(hydroxyamino)-1-oxohexan-2-yl)-3-(carboxymethyl)ureido)pentanedioic Acid]	–
16%	–	O=C(O)CN(CC(=O)O)NC(=O)NC(CSCc1ccccc1)C(=O)O (centres unmarked) [P013, 2,2′-(2-((2-(Benzylthio)-1-carboxyethyl)carbamoyl)hydrazine-1,1-diyl)diacetic Acid]	–
0%	–	O=C(O)CC[C@H](NC(=O)C[C@H](NC(=O)OCc1ccccc1)C(=O)O)C(=O)O [P015, (S)-2-((S)-3-(((Benzyloxy)carbonyl)amino)-3-carboxypropanamido)pentanedioic Acid]	–
